This assay concerns the target T1, renin (Homo sapiens, UniProt P00797).
T1 sequence (P00797 67-406): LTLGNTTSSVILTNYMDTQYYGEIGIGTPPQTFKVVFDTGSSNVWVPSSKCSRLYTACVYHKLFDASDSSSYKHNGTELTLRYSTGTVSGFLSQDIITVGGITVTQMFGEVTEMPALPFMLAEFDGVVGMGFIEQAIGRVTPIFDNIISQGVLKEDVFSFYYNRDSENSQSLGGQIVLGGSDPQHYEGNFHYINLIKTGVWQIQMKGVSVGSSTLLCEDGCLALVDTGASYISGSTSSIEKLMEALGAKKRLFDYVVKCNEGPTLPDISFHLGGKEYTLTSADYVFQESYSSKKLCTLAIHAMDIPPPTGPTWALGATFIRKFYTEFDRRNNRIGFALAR
As to the kind of experiment: renin inhibitory potency. Format: biochemical. Particulars: compared with the more retained 2R,5R isomer separated by HPLC. From the text:
The activity of the compounds of the present invention as inhibitors of the angiotensinogen-cleaving activity of renin may be determined by studying (1) their ability to inhibit the angiotensinogen-cleaving activity of renin in vitro and (2) their ability to antagonize the exogenous renin-induced pressor response in vivo.

Take `CCCC[C@H](NC(=O)[C@H](Cc1ccccc1)NC(=O)N1CCOCC1)C(=O)N[C@@H](CC1CCCCC1)C(=O)C(F)(F)[C@@H](CC(C)C)C(=O)OCC` [2S,5S product, ethyl (2S,5S)-2-isobutyl-3,3-difluoro-4-keto-5-N-(N-[morpholinocarbonyl-L-phenylalanyl]-L-norleucyl)-amino-6-cyclohexylhexanoate]: the renin inhibitory potency result is recorded as “more active”.

Values taken from patent EP0297815B1, “Fluorine containing renin inhibitors” (PFIZER INC., priority 1987, dated 1989).
